The text below walks through data of patent US7576225B2, “6R-(3,6-dideoxy-L-arabino-hexopyranosyloxy) heptanoic acid, preparation process for the same and dauer effect thereof” (KDR Biotech. Co. Ltd., priority 2004, dated 2009).

The experiment concerns C. elegance. Kind of experiment: Measurement of dauer formation effect activity. In kind it is in vivo, Caenorhabditis elegance. The protocol: Next, dauer formation effect of the compound of 6R-(3,6-dideoxy-L-arabino-hexopyranosyloxy)heptanoic acid (I), which is synthesized according to the present process of the invention, is measured using C. elegance.
That is, the dauer formation effect of the synthetic pheromone is measured using C. elegance tinder different feed, temperature and crowd density conditions from each other.
Although it should be passed from an L2 first half step or L3 second half step to an adult step in a condition where the feed and temperature (15-25° C.) are proper and the crowd density is low, when the synthetic pheromone is mixed, the step goes to dauer larva stage.
For comparison, seven C. elegances in the dauer larva and one C. elegance in the adult step are comparatively observed. […] In Picture 1, it can be noted that the C. elegance is not grown without moving.
To identify the dauer formation effect of the inventive pheromone, an activity is measured after the pheromone compound is supplied to S. basal agar culture medium without peptone (Vowels and Thomas, Genetics 130: 105-123, 1992).
The dauer formation effect activity of the inventive compound with respect to C. elegance is shown as Table 3.

For `C[C@H](CCCCC(=O)O)O[C@@H]1O[C@@H](C)[C@H](O)C[C@H]1O` [synthetic pheromone, 6R-(3,6-dideoxy-L-arabino-hexopyranosyloxy)heptanoic acid], the dauer formation effect (320 μg/plate of the synthetic pheromone, C. elegance) was 100%. Moreover, the “dauer formation effect (observation of larvae)” value (synthetic pheromone mixed in, proper feed and temperature (15-25° C.), low crowd density) is “greatly affects the dauer formation effect”.
